From patent US20230056189A1, “COMPOSITIONS AND METHODS FOR TREATMENT OF PATHOLOGIC PAIN ASSOCIATED WITH MALIGNANT GROWTH DISORDER” (Duke University, priority 2020, published 2023)

Tests used:
[1] = tested on: intracellular chloride ([Cl-]i) of primary cortical neurons; assay: Secondary screen: Clomeleon chloride imaging in cultured primary cortical neurons; format: cell-based, mouse; details: for Chloride [Cl—]i, value left of '=>': starting value before the arrow; for Chloride [Cl—]i, value right of '=>': value after the arrow (with compound)
Protocol: (§1) The primary screen encompassed three levels of LUC measurements. The first level of screening yielded a total of 137 compounds with cut-off RLU>125% LUC activity. These 137 compounds were subject to second round of screening, which was carried out in duplicate independent assays to yield the top 103 compounds sorted for highest RLU. The 103 compounds were then subjected to a third round of screening carried out in duplicate independent assays to yield the top 40 compounds which were again ranked. The best 22 of these 40 compounds (ranked for highest RLU activity) were subjected to secondary screening: cultured neurons were treated with the 22 compounds; RT-qPCR and Clomeleon imaging methodologies (Yeo et al., 2009, J Neurosci 29: 14652-14662) were used to determine effects of compounds on Kcc2 mRNA expression and [Cl-]i, respectively. Each compound was ranked based on composite scores from primary and secondary screening.
(§2) Chloride imaging of primary cultured cortical neurons was conducted as previously described (Kuner and Augustine, 2000, Neuron 27: 447-459; Liedtke et al., 2013, Small (Weinheim an der Bergstrasse, Germany) 9: 1066-1075; Yeo et al., 2009, J Neurosci 29: 14652-14662). A Clomeleon expression plasmid was transfected into primary cortical neurons by electroporation (Amaxa Nucleofector Device). Transfected neurons were verified by yellow fluorescent protein (YFP) fluorescence, and ratiometric images (excitation at λ=434 nm, dual emission at λ=485 and 535 nm; for resting chloride, six stable frames at […] were captured, which were averaged) were acquired using RATIOTOOL program. Calibration of Clomeleon signals (535 nm/485 nm emission ratio) was performed by using tributyltin-nigericin to establish a standard curve, which was then normalized for measured intraneuronal pH to take into account the pH sensitivity of Clomeleon.
(§3) 1057 compounds were screened and contained in two NCI libraries: NCI compound libraries Natural Products II and Mechanistic Diversity Set II (FIG. 1, Table 2), related to inhibition of growth of malignantly transformed cells. […] Iterative screening followed by measurements of Kcc2 mRNA (RT-qPCR) and intracellular chloride ([Cl-]i) (clomeleon chloride indicator protein) led to decreasing numbers of re confirmed hits, which eventually identified four (4) “winner” compounds listed in the bottom panel of FIG. 1.

Kcc2 gene expression = assay: Composite ranking from primary and secondary screening; format: cell-based, mouse; details: for Total Score: sum of Luciferase, RT-qPCR and Clomeleon scores; for Top 2 Hits: winner = top 2 of each library by total score
Protocol: as §1, §3

Kcc2 promoter = assay: Primary screen: luciferase (LUC) activity in primary cortical neurons from Kcc2-LUC transgenic mice; format: cell-based, mouse; details: rank score within compound library; compounds 100 nM for 48 h
Protocol: Cell suspension was plated at a density of 1×10^6 cells/ml onto 24-well tissue-culture dishes coated with poly-d-lysine.
LUC activity was then determined for each compound. Culture supernatant was removed and cells were lysed with 150 μl lysis buffer (Targeting Systems CA, USA cat. CLR1). LUC activity was measured with a RedLuciferase Assay kit (Targeting Systems cat. FLAR) according to the manufacturer's instructions. A Veritas microplate luminometer was used to measure luminescence; for each treatment triplicates of 40 μl cell lysates (from each 24-well tissue-culture dish) were used and 25 μl substrate was injected per well. […] Relative Light units (RLU) for each treatment was derived from Light Units (compound treatment)/vehicle treatment (0.5% DMSO).
The primary screen encompassed three levels of LUC measurements. […] Each compound was ranked based on composite scores from primary and secondary screening.

Kcc2 mRNA = assay: Secondary screen: Kcc2 RT-qPCR in cultured primary cortical neurons; format: cell-based, mouse; details: rank score within compound library
Protocol: as §1, with “Each compound was ranked based on composite scores from primary and secondary screening.” left out
Total RNA was isolated from cultured cell samples using Directzol RNA miniprep kit (ZymoResearch). […] Gene expression was assessed by quantitative real-time PCR using 2×SYBR Green Master Mix (Qiagen) and a three-step cycling protocol (anneal at 60° C./elongate at 72° C., denature at 95° C.). […] The amount of target messenger RNA (mRNA) in the experimental group relative to that in the control was determined from the resulting fluorescence and threshold values (Ct) using the […] method. […] was used as a housekeeping gene. […]

neuronal [Cl-]i = assay: Clomeleon [Cl-]i measurement in rat primary cortical neurons; format: cell-based; details: VU0240551 2.5 μM, both vehicle-treated and KP-treated rat neurons
Protocol: as §2
Results represent the average mRNA expression of multiple independent neuronal cultures [n=12 (control), n=4 (0.1 μM KP), n=3 (0.2 μM KP), n=10 (0.5 μM KP). *p<0.05, **p<0.01, ****p<0.0001, one-way ANOVA].
It is shown that KP enhanced Kcc2 gene expression and KCC2 chloride extrusion function with rather rapid kinetics within 3 h time frame.

A375 = assay: MTT cell viability assay; format: cell-based; details: KP 100 nM and/or paclitaxel 1 nM or 10 nM, 72 hours
Protocol: (§4) Two commonly used breast cancer cell lines (MCF7 and MDA MB-231) and one melanoma cell line (A375) were used in this study. 100 nM Kenpaullone (KP) and/or 1 nM or 10 nM paclitaxel (Taxol) were administered to the cell lines to test their impact on cell viability. Each bar represents an average of 6 experiments, and error bars represent SEM. Cell line maintenance and MTT cell viability assay were done according to Xiao et al. (2018, BMC Cancer, 18(1): 675). Cell viability was assessed after 72 hours.

MCF7 = assay: MTT cell viability assay; format: cell-based; details: KP 100 nM and/or paclitaxel 1 nM or 10 nM, 72 hours
Protocol: as §4

MDA MB-231 = assay: MTT cell viability assay; format: cell-based; details: KP 100 nM and/or paclitaxel 1 nM or 10 nM, 72 hours
Protocol: as §4

## Cc1cc(-c2nc3ccccc3s2)ccc1N [4-(1,3-Benzothiazol-2-yl)-2-methylaniline]
[1]
  Chloride [Cl—]i, value left of '=>': 82 mM
  Chloride [Cl—]i, value right of '=>': 38 mM
Kcc2 gene expression
  Total Score: 13

## CC(O)CCC(=O)c1ccoc1 (stereo not shown) [4-Ipomeanol]
[1]
  Chloride [Cl—]i, value left of '=>': 74 mM
  Chloride [Cl—]i, value right of '=>': 32 mM
Kcc2 gene expression
  Total Score: 8

## N=C1N=CN=C2C([C@@H]3O[C@H](CO)[C@@H](O)[C@H]3O)=CN=C12 [9-Deazaadenosine]
[1]
  Chloride [Cl—]i, value left of '=>': 82 mM
  Chloride [Cl—]i, value right of '=>': 40 mM
Kcc2 gene expression
  Total Score: 11

## CC(=O)Nc1ccc(-c2nc3ccccc3s2)cc1 [NSC33006, N-[4-(1,3-benzothiazol-2-yl)phenyl]acetamide]
[1]
  Chloride [Cl—]i, value left of '=>': 74 mM
  Chloride [Cl—]i, value right of '=>': 28 mM
Kcc2 gene expression
  Total Score: 5
  Top 2 Hits: winner

## Cc1ccc(NC(=O)c2cccc([N+](=O)[O-])c2O)c(C)c1 [NSC79456, n-(2,4-Dimethylphenyl)-2-hydroxy-3-nitrobenzamide]
[1]
  Chloride [Cl—]i, value left of '=>': 74 mM
  Chloride [Cl—]i, value right of '=>': 24 mM
Kcc2 gene expression
  Total Score: 5
  Top 2 Hits: winner

## CC(=O)C1CCCC(=O)/C=C/C(=O)O1 (stereo not shown) [NSC180515, 2-Acetyl-2,3,4,5-tetrahydrooxonine-6,9-dione]
Kcc2 promoter
  Luciferase Score (triplicates): 4
Kcc2 mRNA
  RT-qPCR Score (triplicates): 1
[1]
  Chloride reduction (%): 32%
  Chloride [Cl—]i, value left of '=>': 68 mM
  Chloride [Cl—]i, value right of '=>': 22 mM
[1]; rank score within compound library
  Clomeleon Score (duplicates): 1
Kcc2 gene expression
  Total Score: 6
  Top 2 Hits: winner

## Cc1csc(NC(=O)CSc2ccc(-c3ccccc3)nn2)n1 [VU0240551]
Neuronal [Cl-]i
  [Cl-]i with add-on KCC2-transport blocker: ≥ 120 mM

## COc1ccc(C[C@H]2NC[C@H](O)[C@H]2OC(C)=O)cc1 [anisomycine]
[1]
  Chloride [Cl—]i, value left of '=>': 75 mM
  Chloride [Cl—]i, value right of '=>': 43 mM

## C[C@@]12C(=O)OC(=O)[C@]1(C)[C@H]1CC[C@@H]2O1 [cantharidine]
[1]
  Chloride [Cl—]i, value left of '=>': 68 mM
  Chloride [Cl—]i, value right of '=>': 33 mM

## CC1(C)CCC[C@]2(C)C3=C(CC[C@@H]12)C(=O)OC3 [confertifoline]
[1]
  Chloride [Cl—]i, value left of '=>': 75 mM
  Chloride [Cl—]i, value right of '=>': 42 mM

## CC(=O)O[C@H]1C(=O)[C@@]2(C)[C@H]([C@H](OC(=O)c3ccccc3)[C@]3(O)C[C@H](OC(=O)[C@H](O)[C@@H](NC(=O)c4ccccc4)c4ccccc4)C(C)=C1C3(C)C)[C@]1(OC(C)=O)CO[C@@H]1C[C@@H]2O [paclitaxel]
A375
  cell viability (MTT): sensitive
MCF7
  cell viability (MTT): sensitive
MDA MB-231
  cell viability (MTT): sensitive

## COc1cc2c3c(c4ccc(OC)c(OC)c4c2cc1OC)CN1CCC[C@H]1C3 [tylocrebrine]
[1]
  Chloride [Cl—]i, value left of '=>': 75 mM
  Chloride [Cl—]i, value right of '=>': 39 mM
